Reference: PubChem BioAssay AID1918944 (Molecular Pharmacology Branch, DTP, NCI, 2023)
“And” between values parts separate entries of the source, which are not always exact repeats. Identical values can stand only once.

System: 786-0 complex spheroid viability
Assay: Anticancer human tumor 786-0 cell line growth inhibition;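 further: spheroids exposed to agents for seven days before readout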
Conditions: for viability, T/C: stronger effect = lower value
Description: Multicellular complex tumor spheroid response to LSD1 Inhibitor Iadademstat in combination with a variety of drugs and investigational agents in selected tumor cell lines
The current study was undertaken to assess response to LSD1 inhibitors in combination with standard-of-care drugs and investigational agents in solid tumor complex spheroid models as well as in the K-562 leukemia. Complex spheroids include a stromal component modeled by human endothelial cells (HUVEC) and fibroblasts modeled by human mesenchymal stem cells (MSCs). The concentration ranges selected for each drug and investigational agent were based upon clinically achievable concentrations if the clinical Cmax of the agent was known.
Compounds. The drugs and investigational agents used in this study are listed on Table 1. All of the agents used, including staurosporine (NSC755774) and gemcitabine (NSC613327), were obtained from the Developmental Therapeutics Program, NCI. FDA-approved anticancer drugs are available from the NCI at http://dtp.nci.nih.gov/branches/dscb/oncology_drugset_explanation.html. Drugs and investigational agents were >95% pure by proton nuclear magnetic resonance (NMR) and liquid chromatography/mass spectrometry (LC/MS). Stock solutions were prepared at 400x in DMSO, stored at -70 degrees C, and diluted in fresh medium prior to their use. The final concentration of DMSO in cell culture wells never exceeded 0.25% (v/v). The FDA-approved anticancer drug set is available from the Developmental Therapeutics Program at https://dtp.cancer.gov/organization/dscb/obtaining/available_plates.htm. All drugs and investigational agents were tested over a range starting from a high concentration at or near the clinical Cmax and decreasing in half-log increments. If the clinical Cmax for an agent had not been determined, the highest concentration tested was 10 microM.
Cell Lines. The patient-derived cancer cell (PDC) lines: 292921-168-R-J2-PDC, K24384-001-R-PDC, and 521955-158-R2-J5-PDC pancreatic carcinomas, 556581-035-R-J1 ovarian carcinoma, 324938-238-R-J1-PDC, 855422-203-R-J1-PDC and 883617-216-R-J1-PDC urothelial bladder carcinomas, 743489-274-T-PDC renal cell carcinoma, 138582-R-J1 Merkel cell tumor, K60290-347-R-J1 and K57222-313-R-J1-PDC glioblastomas, 653999-131-R-J2-PDC, LG0703-F948-PDC, and 349418-098-R-PDC non-small cell lung carcinomas, 885512-296-R-J2-PDC, 171881-019-R-J1-PDC breast carcinomas and 186277-243-T-J2-PDC and 233499-124-R-J2-PDC colon carcinomas were obtained from the NCI Patient-Derived Models Repository (PDMR, https://pdmr.cancer.gov). The established cell lines NCI/ADR-RES (RRID:CVCL_14520 and OVCAR-5 (RRID:CVCL_1628) ovarian carcinomas, 786-O (RRID:CVCL_1051) and A498 (RRID:CVCL_A498) renal cell carcinoma, NCI-H211 (ATCC, cat. CRL-5824; RRID:CVCL_1529), NCI-H196 (ATCC, cat. CRL-5823, RRID:CVCL_1509), SW 1271 (ATCC, cat. CRL-2177, RRID:CVCL_1716) and NCI-H1876 (ATCC, cat. CRL-5902, RRID:CVCL_1503) small cell lung carcinomas, MDA-MB-231 (RRID:CVCL_0062) and MDA-MB-468 (RRID:CVCL_0419)breast carcinomas (10-12). Pooled donor human umbilical vein endothelial cells (HUVEC, Lonza, cat. CC-2519) and human mesenchymal stem cells (hMSC, Lonza, cat. PT-2501) were purchased from Lonza (Walkersville, MD).
Cell Culture. All cells were maintained in an incubator at 37 degrees C and 5% CO2 with 95% humidity. The PDC lines were cultured according to standard operating procedures established by the NCI PDMR (https://pdmr.cancer.gov). Briefly all PDCs were thawed and cultured in Matrigel-coated flasks prepared with a working solution of 1X Ham's F-12 nutrient mix, without supplementation (Invitrogen, Waltham, MA, cat. 11765054), 100 U/mL penicillin-streptomycin (Invitrogen, cat. 15140122), and 2.5% Matrigel (Corning Inc., Corning, NY, cat. 354248) for the first three passages. […]

[1] = curve of first compound, second compound 0.1 µM
[2] = curve of first compound, second compound 0.316 µM
[3] = curve of first compound, second compound 1 µM
[4] = curve of first compound, second compound 3.16 µM
[5] = curve of first compound, second compound 10 µM
[6] = second compound 0.1 µM, first compound 0.00949 µM
[7] = second compound 0.1 µM, first compound 0.03 µM
[8] = second compound 0.1 µM, first compound 0.0949 µM
[9] = second compound 0.1 µM, first compound 0.3 µM
[10] = second compound 0.316 µM, first compound 0.00949 µM
[11] = second compound 0.316 µM, first compound 0.03 µM
[12] = second compound 0.316 µM, first compound 0.0949 µM
[13] = second compound 0.316 µM, first compound 0.3 µM
[14] = second compound 1 µM, first compound 0.00949 µM
[15] = second compound 1 µM, first compound 0.03 µM
[16] = second compound 1 µM, first compound 0.0949 µM
[17] = second compound 1 µM, first compound 0.3 µM
[18] = second compound 3.16 µM, first compound 0.00949 µM
[19] = second compound 3.16 µM, first compound 0.03 µM
[20] = second compound 3.16 µM, first compound 0.0949 µM
[21] = second compound 3.16 µM, first compound 0.3 µM
[22] = second compound 10 µM, first compound 0.00949 µM
[23] = second compound 10 µM, first compound 0.03 µM
[24] = second compound 10 µM, first compound 0.0949 µM
[25] = second compound 10 µM, first compound 0.3 µM

| SMILES | IC50 [1] [nM] | IC50 [2] [nM] | IC50 [3] [nM] | IC50 [4] [nM] | IC50 [5] [nM] | viability, T/C [6] [%] | viability, T/C [7] [%] | viability, T/C [8] [%] | viability, T/C [9] [%] | viability, T/C [10] [%] | viability, T/C [11] [%] | viability, T/C [12] [%] | viability, T/C [13] [%] | viability, T/C [14] [%] | viability, T/C [15] [%] | viability, T/C [16] [%] | viability, T/C [17] [%] | viability, T/C [18] [%] | viability, T/C [19] [%] | viability, T/C [20] [%] | other results |
| --- | --- | --- | --- | --- | --- | --- | --- | --- | --- | --- | --- | --- | --- | --- | --- | --- | --- | --- | --- | --- | --- |
| CCc1c2c(nc3ccc(O)cc13)-c1cc3c(c(=O)n1C2)COC(=O)[C@]3(O)CC + NC1CC1c1ccc(-c2cccc(O)c2)cc1 | < 0.949 | < 0.949 | < 0.949 | < 0.949 | < 0.949 | 4.15 | 6.01 | 8.35 | 9.73 | 4.02 | 6.1 | 8.62 | 9.44 | 4.57 | 6.53 | 7.76 | 8.97 | 4.22 | 6.42 | 7.92 | viability, T/C (second compound 0.1 µM, first compound 0.000949 µM): 4.23%; viability, T/C (second compound 0.1 µM, first compound 0.003 µM): 4.35%; viability, T/C (second compound 0.316 µM, first compound 0.000949 µM): 4.4%; viability, T/C (second compound 0.316 µM, first compound 0.003 µM): 3.22%; viability, T/C (second compound 1 µM, first compound 0.000949 µM): 3.72%; viability, T/C (second compound 1 µM, first compound 0.003 µM): 3.14%; viability, T/C (second compound 3.16 µM, first compound 0.000949 µM): 4.08%; viability, T/C (second compound 3.16 µM, first compound 0.003 µM): 3.82%; viability, T/C [21]: 7.63%; viability, T/C (second compound 10 µM, first compound 0.000949 µM): 3.29%; viability, T/C (second compound 10 µM, first compound 0.003 µM): 4.49%; viability, T/C [22]: 5.68%; viability, T/C [23]: 8.54%; viability, T/C [24]: 9.57%; viability, T/C [25]: 9.08% |
| COc1cc(C2c3cc4c(cc3C(OC3OC5COC(C)OC5C(O)C3O)C3COC(=O)C23)OCO4)cc(OC)c1O (configuration not stated) + NC1CCC(NC2CC2c2ccccc2)CC1 | 203 | 216 | 199 | 149 | 115 | 115 | 105 | 61.1 | 44.3 | 122 | 119 | 65.7 | 45.8 | 118 | 110 | 66.4 | 40.7 | 107 | 104 | 56.2 | viability, T/C (second compound 0.1 µM, first compound 0.949 µM): 22%; viability, T/C (second compound 0.1 µM, first compound 3 µM): 9.16%; viability, T/C (second compound 0.316 µM, first compound 0.949 µM): 19.4%; viability, T/C (second compound 0.316 µM, first compound 3 µM): 8.96%; viability, T/C (second compound 1 µM, first compound 0.949 µM): 18.8%; viability, T/C (second compound 1 µM, first compound 3 µM): 8.18%; viability, T/C [21]: 34.4%; viability, T/C (second compound 3.16 µM, first compound 0.949 µM): 17.1%; viability, T/C (second compound 3.16 µM, first compound 3 µM): 7.91%; viability, T/C [22]: 81.6%; viability, T/C [23]: 79.6%; viability, T/C [24]: 48.1%; viability, T/C [25]: 33.2%; viability, T/C (second compound 10 µM, first compound 0.949 µM): 16.4%; viability, T/C (second compound 10 µM, first compound 3 µM): 4.68% |
| COc1ccc([C@@H](O)c2cc(-c3ncnc4cc(N5CCOCC5)ccc34)c(F)cc2Cl)nn1 | – | – | – | – | – | – | – | – | – | – | – | – | – | – | – | – | – | – | – | – | viability, T/C (compound 0.0316 µM): 105% and 102%; viability, T/C (compound 0.1 µM): 105% and 103%; viability, T/C (compound 0.316 µM): 107% and 99.3%; viability, T/C (compound 1 µM): 94.2% and 89.3%; viability, T/C (compound 3.16 µM): 66.3% and 59.2%; viability, T/C (compound 10 µM): 42.8% and 42.1%; IC50 (curve of compound): 7010 nM and 5890 nM |
